Measured values taken from patent US20230263758A1, “COMPOSITIONS OF EDTA HAVING ACTIVITY AGAINST PLANKTONIC AND BIOFILM CELLS OF CLINICALLY RELEVANT PATHOGENS” (SterileCare Inc., priority 2022, published 2023).
Structures can show the parent of a compound that is named as a salt.

Key:
[1] = test system: Staphylococcus epidermidis SK9; test: Checkerboard FBEC index, 48-h biofilm; format: cell-based; conditions: S. epidermidis SK9 biofilm
Experimental: (§4) In step (4), microtiter plates are incubated at 37° C. for 24 h. then (6), after incubation, the bacterial and fungal cells were dislodged from the pegs into the recovery medium described above.
(§5) Three 10-μL aliquots, for a total of 30 μL from each well of recovery medium, were spotted on MH agar plates and incubated for 24 h at 37° C. […] The FBEC determination is a modification of the FICI.

[2] = test system: 48-h-old biofilms of bacterial and fungal strains; test: MBEC assay, summary, 24 h exposure of 48-h-old biofilms; format: cell-based
Experimental: A biofilm cultivation cell composition was provided. This fifth composition was created using an MBEC Assay® biofilm inoculator, consisting of a polystyrene lid with 96 downward-protruding pegs and a corresponding base used to grow biofilms. A standardized inoculum was diluted in an appropriate biofilm growth medium to achieve a viable cell count of 1.5×10^6 CFU/mL of bacterial cells or 5×10^5 CFU/mL of fungal cells. Then, 150 μL of this inoculum was transferred into each appropriate well, and the peg lids were inserted into the microtiter plates. The plates were sealed with Parafilm and were incubated at optimum temperature for 48 h with slight rocking for bacteria and shaking at 200 rpm for fungal strains. After incubation, the peg lid was removed from the base and rinsed twice with sterile phosphate-buffered saline (PBS) for 2 min to remove loosely attached non-sessile cells. Before the antimicrobial challenge, the pegs in column 1 (n=8) were considered the biofilm growth control; these pegs were removed from the lids, placed into 200 μL of recovery medium, and analyzed for starting biofilm cell numbers as described below. […] After the antimicrobial challenge, the pegs were rinsed twice with sterile PBS for 2 min and placed into a new 96-well plate containing 200 μL of recovery medium. The recovery plates were sealed with Parafilm, and biofilm cells were dislodged from the pegs by sonication for 30 min with a Branson 3510 bath sonicator. The biofilm cells in the recovery medium were serially diluted, and a drop dilution assay was performed to enumerate the viable cells. MBEC values were determined as the minimum concentration of antimicrobials that yielded a viable cell count at or lower than the 125 CFU/mL detection limit.

MRSA ON184 = test: Checkerboard titration, FICI; format: cell-based, Staphylococcus aureus
Experimental: (§1) A fourth composition and solution included tetrasodium EDTA with ethanol or chlorhexidine HCl. This fourth composition and solution were created using checkerboard titration methods using micro broth dilution in 96-well microtiter plates. The concentrations of antimicrobials used were based on previously determined MIC values. Briefly, 200 μL of two-fold dilutions of tetrasodium EDTA and ethanol or chlorhexidine HCl were prepared in MH or MH II broth with standardized cell suspension. […] Microtiter plates were incubated at 37° C. for 24 h, and the results were analyzed. Each test was performed in duplicate and included a growth control without adding any antimicrobials.

Escherichia coli ON29 = test: Checkerboard, FMCI; format: cell-based; conditions: E. coli ON29
Experimental: (§2) An assay was made using a minimum inhibitory concentration (MIC) and minimum bactericidal concentration (MBC) and minimum fungicidal concentration (MFC) determination. The MIC was determined by the micro broth dilution method in 96-well plates. Serial two-fold dilutions of tetrasodium EDTA (from 2% to 0.015%), ethanol (from 50% to 0.1%) and chlorhexidine HCl (from 100 μg/mL to 0.025 μg/mL) were prepared in MH broth with a final volume of 90 μL per well. A 10 μL containing 1×10^5 bacterial cells or 2×10^3 fungal cells were added to each well. The inoculated plates were covered with a lid, sealed with Parafilm, and incubated for 24 h at 37° C. with slight rocking on a tilting platform shaker. After incubation, the optical density at 600 nm (OD 600) of the cultures in each well was measured using an xMark™ Microplate Absorbance Spectrophotometer (Bio-Rad). […] MBCs and MFCs were determined by transferring 100 μL from each well with no apparent growth onto appropriate agar plates, followed by incubation for 24 h at 37° C.
as §1

Candida albicans SK4b = test: Checkerboard, FMCI; format: cell-based; conditions: C. albicans SK4b
Experimental: as §2, §1

[3] = test system: Staphylococcus aureus ON89; test: Checkerboard, FMCI; format: cell-based; conditions: S. aureus ON89
Experimental: as §2, §1

Proteus mirabilis ON153 = test: Checkerboard, FMCI; format: cell-based; conditions: P. mirabilis ON153
Experimental: as §2, §1

[4] = test system: Staphylococcus epidermidis ON170; test: Checkerboard, FMCI; format: cell-based; conditions: S. epidermidis ON170
Experimental: as §2, §1

Serratia marcescens SK2 = test: Checkerboard, FMCI; format: cell-based; conditions: S. marcescens SK2
Experimental: as §2, §1

[5] = test system: Pseudomonas aeruginosa SK1; test: Checkerboard, FMCI; format: cell-based; conditions: P. aeruginosa SK1
Experimental: as §2, §1

S. epidermidis SK9 [6] = test: Checkerboard titration, FICI; format: cell-based, Staphylococcus epidermidis
Experimental: as §1

E. coli SK2 [7] = test: Checkerboard, FMCI; format: cell-based, Escherichia coli; conditions: EDTA + chlorhexidine HCl
Experimental: as §2
(§3) A fourth composition and solution included tetrasodium EDTA with ethanol or chlorhexidine HCl. […] The concentrations of antimicrobials used were based on previously determined MIC values. […] Microtiter plates were incubated at 37° C. for 24 h, and the results were analyzed. […]

E. coli SK2 [8] = test: Checkerboard titration, FICI; format: cell-based, Escherichia coli
Experimental: as §1

S. epidermidis SK9 [9] = test: Checkerboard, FMCI; format: cell-based, Staphylococcus epidermidis; conditions: EDTA + chlorhexidine HCl
Experimental: as §2, §3

[10] = test system: Pseudomonas aeruginosa SK1; test: Checkerboard FBEC index, 48-h biofilm; format: cell-based; conditions: P. aeruginosa SK1 biofilm; EDTA + chlorhexidine HCl
Experimental: as §4, §5

C. albicans ON47 [11] = test: Checkerboard titration, FICI; format: cell-based, Candida albicans
Experimental: as §1

C. albicans ON47 [12] = test: Checkerboard, FMCI; format: cell-based, Candida albicans; conditions: EDTA + chlorhexidine HCl
Experimental: as §2, §3

[13] = test system: 48-h old biofilms of bacterial and fungal test organisms; test: Rapid biofilm eradication, 2-h exposure; format: cell-based; conditions: each agent alone at its MBEC
Experimental: Determining rapid biofilm eradication by tetrasodium EDTA, ethanol, and chlorhexidine HCl alone and in combination was performed. After biofilm formation, control pegs (n=6) were removed and analyzed to determine the starting biofilm cell numbers via the drop dilution method. The 48-h old biofilms on the pegs were exposed to different concentrations of test antimicrobials, dissolved in an appropriate growth medium, for two h to evaluate their efficacy alone and in combination. […] Following treatment, pegs were washed twice with sterile PBS, and the biofilm cells were dislodged into recovery medium and enumerated as described above.
The method for rapid biofilm eradication ability of test antimicrobials alone and in combination against 48-h-old biofilms within two h exposure time included (1) choosing different concentrations of test antimicrobials to assess their potency in eradicating preformed biofilms of study organisms within two h. Then (2) the quantitative recovery from biofilms following exposure to the antimicrobial solutions for bacterial strains (FIGS. 4A-4C) and fungal strains (FIG. 5) was evaluated.

[14] = EDTA + chlorhexidine HCl checkerboard

| SMILES | Concentration alone able to eradicate all established biofilms following 24 h of treatment [2] | Inhibitory concentration in combination (MRSA ON184; [14]) | Microbicidal concentration in combination (Escherichia coli ON29; EDTA + chlorhexidine HCl) | Microbicidal concentration in combination ([3]; EDTA + chlorhexidine HCl) | Microbicidal concentration in combination ([4]; EDTA + chlorhexidine HCl) | Microbicidal concentration in combination ([5]; EDTA + chlorhexidine HCl) | Inhibitory concentration in combination (S. epidermidis SK9 [6]; [14]) | Microbicidal concentration in combination (E. coli SK2 [7]) | Inhibitory concentration in combination (E. coli SK2 [8]; [14]) | Microbicidal concentration in combination (S. epidermidis SK9 [9]) | Biofilm eradication concentration in combination (FBEC) [10] | Inhibitory concentration in combination (C. albicans ON47 [11]; [14]) | Microbicidal concentration in combination (C. albicans ON47 [12]) | Eradication of preformed biofilms after 2 h of exposure [13] | also measured |
| --- | --- | --- | --- | --- | --- | --- | --- | --- | --- | --- | --- | --- | --- | --- | --- |
| [H]/N=C(\N/C(=N/[H])NCCCCCCNC(=N)NC(=N)Nc1ccc(Cl)cc1)Nc1ccc(Cl)cc1 [Chlorhexidine HCl, chlorhexidine HCl, reference compound] | 100 µg/mL | 0.2 µg/mL | 0.2 µg/mL | 0.2 µg/mL | 0.4 µg/mL | 1.6 µg/mL | 0.025 µg/mL | 0.2 µg/mL | 0.1 µg/mL | 0.4 µg/mL | 3.125 µg/mL | 0.8 µg/mL | 1.6 µg/mL | failed to eradicate | Biofilm eradication concentration in combination (FBEC) ([1]; EDTA + chlorhexidine HCl): 3.125 µg/mL; Microbicidal concentration in combination (Candida albicans SK4b; EDTA + chlorhexidine HCl): 0.8 µg/mL; Microbicidal concentration in combination (Proteus mirabilis ON153; EDTA + chlorhexidine HCl): 1.6 µg/mL; Microbicidal concentration in combination (Serratia marcescens SK2; EDTA + chlorhexidine HCl): 1.6 µg/mL |
| O=C([O-])CN(CCN(CC(=O)[O-])CC(=O)[O-])CC(=O)[O-].[Na+].[Na+].[Na+].[Na+] [EDTA, tetrasodium EDTA] | 4% | 0.008 % w/v | 0.008 % w/v | 0.008 % w/v | 0.25 % w/v | 0.031 % w/v | 0.015 % w/v | 0.015 % w/v | 0.008 % w/v | 0.008 % w/v | 0.25 % w/v | 0.125 % w/v | 0.031 % w/v | failed to eradicate | Biofilm eradication concentration in combination (FBEC) ([1]; EDTA + ethanol): 0.031 % w/v; Inhibitory concentration in combination (MRSA ON184; EDTA + ethanol checkerboard): 0.015 % w/v; Microbicidal concentration in combination (Escherichia coli ON29; EDTA + ethanol): 0.25 % w/v; Microbicidal concentration in combination (Candida albicans SK4b; EDTA + ethanol): 0.25 % w/v; Microbicidal concentration in combination ([3]; EDTA + ethanol): 0.25 % w/v; Microbicidal concentration in combination (Proteus mirabilis ON153; EDTA + ethanol): 0.063 % w/v; Microbicidal concentration in combination ([4]; EDTA + ethanol): 0.031 % w/v; Microbicidal concentration in combination (Serratia marcescens SK2; EDTA + ethanol): 0.25 % w/v; Microbicidal concentration in combination ([5]; EDTA + ethanol): 0.031 % w/v; Inhibitory concentration in combination (S. epidermidis SK9 [6]; EDTA + ethanol checkerboard): 0.015 % w/v; Inhibitory concentration in combination (E. coli SK2 [8]; EDTA + ethanol checkerboard): 0.015 % w/v; Inhibitory concentration in combination (C. albicans ON47 [11]; EDTA + ethanol checkerboard): 0.25 % w/v |
